Laboratory results: ChEMBL document CHEMBL4000216, “Lignan derivatives from Selaginella tamariscina and their nitric oxide inhibitory effects in LPS-stimulated RAW 264.7 cells” (Bioorg Med Chem Lett, 2017)
Active and inactive are the calls of the source. The rule behind the calls is not given here.

Columns and labels:
RAW264.7 [1] = experiment: Cytotoxicity against mouse RAW264.7 cells assessed as reduction in cell viability at 3 to 60 uM after 24 hrs by MTT assay; type: cell-based; details: raw264.7, 24 h
RAW264.7 [2] = experiment: Inhibition of LPS-induced NO production in mouse RAW264.7 cells preincubated for 1 hr followed by LPS stimulation for 24 hrs by Griess assay; type: functional, cell-based
RAW264.7 [3] = experiment: Inhibition of LPS-induced NO production in mouse RAW264.7 cells at 3 to 60 uM preincubated for 1 hr followed by LPS stimulation for 24 hrs by Griess assay; type: functional, cell-based

Structure (SMILES) | Activity (RAW264.7 [1]) | IC50 (RAW264.7 [2]) [µM] | inhibition (RAW264.7 [3])
COc1cc([C@@H]2Oc3c(OC)cc(C(C)=O)cc3[C@H]2CO[C@@H]2O[C@H](CO)[C@@H](O)[C@H](O)[C@H]2O)cc(OC)c1O | Non-Toxic | 55.8 | –
COc1cc(C[C@@H](CO[C@@H]2O[C@H](CO)[C@@H](O)[C@H](O)[C@H]2O)c2cc(C(C)=O)cc(OC)c2O)cc(OC)c1O | Non-Toxic | 40.9 | –
COc1cc([C@H]2OC[C@H]3[C@@H]2CO[C@@H]3c2cc(OC)c(O[C@@H]3O[C@H](CO)[C@@H](O)[C@H](O)[C@H]3O)c(OC)c2)cc(OC)c1O[C@@H]1O[C@H](CO)[C@@H](O)[C@H](O)[C@H]1O [LIRIODENDRIN] | Non-Toxic | – | inactive
COc1cc([C@@H]2Oc3c(OC)cc(C(C)=O)cc3[C@H]2CO)cc(OC)c1O[C@@H]1O[C@H](CO)[C@@H](O)[C@H](O)[C@H]1O | Non-Toxic | 32.4 | –
COc1cc([C@@H]2Oc3c(OC)cc(C(C)=O)cc3[C@H]2CO)cc(OC)c1O | Non-Toxic | 32.3 | –
COc1cc([C@@H]2Oc3c(OC)cc(C(C)=O)cc3[C@H]2CO)cc(OC)c1O[C@@H]1O[C@H](CO[C@@H]2O[C@H](CO)[C@@H](O)[C@H](O)[C@H]2O)[C@@H](O)[C@H](O)[C@H]1O | Non-Toxic | – | inactive
O=C1/C(=C/c2ccc(O)c(O)c2)COc2cc(O)ccc21 [SAPPANONE A] | – | 9.3 | –
